The record followed here is patent publication US20230339851A1, “CXCR6 SULFONAMIDE COMPOUNDS” (CHEMOCENTRYX, INC., priority 2022, published 2023).

For the assay, the target named is T1, human CXCR6 (Homo sapiens, UniProt O00574).
T1 construct: expressed in transfected cells
Description: Radioligand Binding Assay (125I-CXCL16 displacement). To be noted: L1.2 cells stably transfected with human CXCR6 cDNA, 0.1 nM 125I-CXCL16, 4° C., three-hour incubation; read-out: Potency (IC50). In a few lines:
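Displacement of 0.1 nM 125I-CXCL16 from human CXCR6 stably expressed in L1.2 cells was measured after a 3 h, 4 °C incubation in HBSS with 0.1% BSA. Filter-bound cpm were counted, and IC50 values came from a 3-parameter nonlinear fit.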

pIC50: −log10 of the molar value.

T1 sequence (O00574 whole entry): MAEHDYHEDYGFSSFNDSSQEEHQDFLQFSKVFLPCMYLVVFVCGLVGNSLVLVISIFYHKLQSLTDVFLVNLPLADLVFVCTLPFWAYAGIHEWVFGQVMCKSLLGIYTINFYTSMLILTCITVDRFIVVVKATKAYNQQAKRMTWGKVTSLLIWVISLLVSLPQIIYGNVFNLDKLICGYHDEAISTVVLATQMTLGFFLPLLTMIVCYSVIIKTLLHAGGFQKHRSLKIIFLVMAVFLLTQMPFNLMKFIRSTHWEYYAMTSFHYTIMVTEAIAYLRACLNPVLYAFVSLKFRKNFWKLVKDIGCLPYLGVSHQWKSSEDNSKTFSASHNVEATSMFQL

A word on the pIC50: it is the negative decadic logarithm of the IC50, by convention in mol/L. For the molecule `C=CC(=O)Nc1ccc(S(=O)(=O)Nc2cccc(OC(F)(F)F)c2)c(OCC)c1` [Example 1.583], the pIC50 is 6.12 to 6.70.
